Where two headings read alike, the source gives them in different places. Bridge positions count the residues as written; N and C are the ends. Square brackets hold non-standard residues; d marks the D form. Peptide text beside a SMILES is read from it. Lys(iPr) = CC(C)NCCCC[C@H](N)C(=O)O; Orn(iPr) = CC(C)NCCC[C@H](N)C(=O)O
Tests used:
[1] = Pharmacokinetic study (PK) after intravenous administration; type: in vivo, male CD-1 mice; conditions: 1 mg/kg; for AUC0-∞ / CL / Cmax / Half-life / Vdis: mouse, in vivo
Experimental: For the compounds of Ex. 1, Ex.2, Ex. 3, Ex. 4, Ex. 5 and Ex. 6 pharmacokinetic studies after intravenous (i.v.) administration were performed.
30 grams (± 20%) male CD-1 mice obtained from Charles River Laboratories Deutschland GmbH were used. The vehicle, phosphate buffered saline, was added to give a final concentration of 0.5 mg/mL of the compound. The volume was 2 mL/kg and the compound was injected to give a final intravenous dose of 1 mg/kg. Approximately 300-400 µL of blood was removed under light isoflurane anesthesia by cardiac puncture at predetermined time intervals (5, 15, 30 min and 1, 2, 3, 4, hours) and added to heparinized tubes. Plasma was removed from pelleted cells upon centrifugation and frozen at -80 °C prior to HPLC-MS analysis.
Aliquots of 50 µL each of mouse plasma of untreated aminals ("blank" mouse plasma) were spiked with known amounts of the compounds Ex. 1, Ex.2, Ex. 3, Ex. 4, Ex. 5 and Ex. 6 in order to obtain 10 plasma calibration samples for each compound in the range 1 - 4000 ng/mL. Aliquots of 50 µL each of mouse plasma from treated animals were used as plasma study samples.
All plasma samples were spiked with an appropriate internal standard and extracted with acetonitrile containing 2% formic acid. Supernatants were evaporated to dryness under nitrogen and the remaining solids reconstituted in water/acetonitrile 95/5 (v/v) + 0.2% formic acid.
Extracts were then analyzed by reverse-phase chromatography (Acquity BEH C18, 100 x 2.1 mm, 1.7 µm column, Waters for Ex. 1 and Acquity HSS C18 SB, 100 x 2.1 mm, 1.8 µm column, Waters for Ex. 2, Ex. 3, Ex. 4, Ex. 5 and Ex. 6), using the following conditions: Ex. 1, mobile phases: (A) water/acetonitrile 95/5 (v/v) + 0.1% formic acid, (B) acetonitrile/water 95/5 (v/v) + 0.1% formic acid, gradient: 1% (B) 0-0.1 min, 15% (B) 0.1-2.5 min for Ex. 1 and 1% (B) 0-0.1 min, 40% (B) 0.1-2.5 min for Ex. 2, Ex. 3, Ex. 4, Ex. 5 and Ex. 6. The detection and quantification was performed by mass spectrometry, with electrospray interface in positive mode and selective fragmentation of analytes (4000 Q Trap mass spectrometer, AB Sciex).
PK parameters were calculated by WinNonLin™ software version 5.3 (Pharsight- A Certara™ Company, Moutain View, CA 94041 USA) using a one-compartmental model analysis. PK parameters were determined by least-square fitting of the model to the experimental data.

[2] = Plasma stability, mouse plasma; type: in vitro ADME
Experimental: The stability of the peptides in human and mouse plasma was determined by applying the following method: 346.5 µL/deep well of freshly thawed human plasma (Basler Blutspende-dienst) and mouse plasma (Harlan Sera-Lab, UK), respectively, were spiked with 3.5 µL/well of compound dissolved in DMSO/H2O (90/10 [v/v], 1 mM, triplicate) and incubated at 37° C. At t = 0, 15, 30, 60, 120, 240 and 1440 min aliquots of 50 µL were transferred to filtration plate wells containing 150 µL/well of 2% formic acid in acetonitrile. Following shaking for 2 min the occurred suspensions were filtrated by vacuum. 100 µL of each filtrate were transferred to a propylene microtiter plate and dried under N2. The residual solids were reconstituted by adding 100 µL/well of water/acetonitrile, 95/5 (v/v) + 0.2% formic acid and analyzed by LC/MS as follows: Column: Waters, XBridge C18, mobile phases: (A) water + 0.1% formic acid and (B) acetonitrile/water, 95/5 (v/v) + 0.1% formic acid, gradient: 5%-100% (B) in 1.8 minutes, electrospray ionization, MRM detection (triple quadrupole). The peak areas were determined and triplicate values are averaged. The stability is expressed in percent of the initial value at t = 0. (tx/t0 x 100). By using the TREND function of EXCEL (Microsoft Office 2003) T1/2 were determined.

[3] = Drug loading calculations via maintenance dose rate (rate of infusion); conditions: CLiv-mouse values scaled by 0.127 (GFR human/GFR mouse)
Experimental: The drug load for an implant comprising a peptide of the invention was calculated following the basic principles in pharmacokinetics (see also J. Gabrielsson, D. Weiner, "Pharmacokinetics and Pharmaco-dynamics Data Analysis: Concepts and Applications", 4th edition, Swedish Pharmaceutical Press, Stockholm, Sweden, 2006) whereby the maintainance dose rate (rate of infusion, Rin) can be defined as the rate at which a drug is to be administered to reach a steady state of a certain dose in the plasma. The maintainance dose rate can be expressed using the correlation Rin [g/(h*kg)] = CLiv[L/(h*kg)] x Css,eff [g/L], wherein CLiv is the clearance (i.v. - admin.) and Css,eff the effective concentration of the drug in the plasma at steady state considering an efficacy margin A: Css,eff [g/L] = A x (IC50/fu) x MW [(mol/L)*(g/mol)]. Therefore, the total amount of a drug loaded into an implant providing for a constant effective concentration of that drug in the plasma for a certain period of time in a subject of a certain body weight can be calculated by applying the following correlation: Drugload [g/subject] = Rin [g/(h*kg)] x duration[h] x BW [kg/subject]. [formula]
Further pre-conditions are an efficacy margin of A = 3, a study duration of 672 h (28 days) and a body weight of a human suject of 70 kg. The glomerular filtration rate (GFR) which mainly influences the clearance of the peptides is highly dependent on the species. In general, the GFR of humans is averaged to be 107 mL/(h*kg) compared to the GFR of mouse being 840 mL/(h*kg). Therefore, the CLiv-mouse values indicated in Table 5b were allometrically scaled by 107 mL/(h*kg)/840 mL/(h*kg) = 0.127 before employed in the above described correlations.

Row | Compound | level at 4 h ([1]; male, CD-1, in vivo, iv, mouse plasma, i.v. route, Time 4 h, read-out: Calc. Conc.) [ng/mL] | Plasma stability mouse pl. T1/2 ([2]; mouse plasma, 37° C, last time point 1440 min) [h] | CLiv, human (allometric scaled) [3] [mL/min/kg] | AUC0-∞ ([1]; iv) [ng·h/mL] | CL ([1]; iv) [mL/min/kg] | Cmax ([1]; iv) [ng/mL] | Half-life ([1]; iv) [h] | Vdis ([1]; iv) [L/kg] | Plasma stability mouse pl. T1/2 [2] [h] | Plasma stability mouse pl. cpd left at 1440 min [2] [%] | Calc. Conc. ([1]; mouse plasma, i.v. route, Time 4 h) [ng/mL]
1 | COc1ccc(C[C@@H]2NC(=O)[C@H](Cc3c[nH]cn3)NC(=O)[C@H](Cc3ccc(O)cc3)NC(=O)[C@@H]3CCCN3C(=O)[C@H]3CCCN3C(=O)[C@H](CCCCNC(C)C)NC(=O)[C@H](CCC(N)=O)NC(=O)[C@H](Cc3ccc(O)cc3)NC(=O)[C@@H]3CSSC[C@H](NC2=O)C(=O)N[C@@H](CO)C(=O)N[C@@H](C)C(=O)N[C@H](Cc2ccc(OC)cc2)C(=O)N[C@@H](CCCNC(C)C)C(=O)N[C@@H](CCCNC(=N)N)C(=O)N[C@@H](Cc2ccc(O)cc2)C(=O)N3)cc1 [Ex. 6, cyclo(-Tyr^1-His^2-Tyr(Me)^3-Cys^4-Ser^5-Ala^6-^DTyr(Me)^7-Orn(iPr)^8-Arg^9-Tyr^10-Cys^11-Tyr^12-Gln^13-Lys(iPr)^14-^DPro^15-Pro^16-), disulfide bond between Cys^4 and Cys^11] (cyclo(YHY(Me)CSA[dY](Me)[Orn(iPr)]RYCYQ[Lys(iPr)][dP]P); disulfide 4-11) | 7 | 24 | 5.18 |  |  |  |  |  |  |  | 
2 | COc1ccc(C[C@@H]2NC(=O)[C@H](Cc3c[nH]cn3)NC(=O)[C@H](Cc3ccc(O)cc3)NC(=O)[C@@H]3CCCN3C(=O)[C@H]3CCCN3C(=O)[C@H](CCCCNC(C)C)NC(=O)[C@H](CCC(N)=O)NC(=O)[C@H](Cc3ccc(O)cc3)NC(=O)[C@@H]3CSSC[C@H](NC2=O)C(=O)N[C@@H](CO)C(=O)N[C@@H](C)C(=O)N2CCC[C@@H]2C(=O)N[C@@H](CCCNC(C)C)C(=O)N[C@@H](CCCNC(=N)N)C(=O)N[C@@H](Cc2ccc(O)cc2)C(=O)N3)cc1 [Ex. 2, cyclo(-Tyr^1-His^2-Tyr(Me)^3-Cys^4-Ser^5-Ala^6-^DPro^7-Orn(iPr)^8-Arg^9-Tyr^10-Cys^11-Tyr^12-Gln^13-Lys(iPr)^14-^DPro^15-Pro^16-), disulfide bond between Cys^4 and Cys^11] (cyclo(YHY(Me)CSA[dP][Orn(iPr)]RYCYQ[Lys(iPr)][dP]P); disulfide 4-11) |  |  | 1.4 | 1518 | 11 | 1575 | 0.7 | 0.635 | 24 | 100 | 
3 | CC(C)NCCCC[C@@H]1NC(=O)[C@H](CCC(N)=O)NC(=O)[C@H](Cc2ccc(O)cc2)NC(=O)[C@@H]2CSSC[C@H](NC(=O)[C@H](Cc3ccc(O)cc3)NC(=O)[C@H](Cc3c[nH]cn3)NC(=O)[C@H](Cc3ccc(O)cc3)NC(=O)[C@@H]3CCCN3C(=O)[C@H]3CCCN3C1=O)C(=O)N[C@@H](CO)C(=O)N[C@@H](C)C(=O)N1CCC[C@@H]1C(=O)N[C@@H](CCCNC(C)C)C(=O)N[C@@H](CCCNC(=N)N)C(=O)N[C@@H](Cc1ccc(O)cc1)C(=O)N2 [Ex. 1, cyclo(-Tyr^1-His^2-Tyr^3-Cys^4-Ser^5-Ala^6-^DPro^7-Orn(iPr)^8-Arg^9-Tyr^10-Cys^11-Tyr^12-Gln^13-Lys(iPr)^14-^DPro^15-Pro^16-), disulfide bond between Cys^4 and Cys^11] (cyclo(YHYCSA[dP][Orn(iPr)]RYCYQ[Lys(iPr)][dP]P); disulfide 4-11) |  |  | 1.83 | 1151 | 14.5 | 1829 | 0.4 | 0.547 | 24 | 100 | 7
4 | COc1ccc(C[C@H]2NC(=O)[C@H](C)NC(=O)[C@H](CO)NC(=O)[C@@H]3CSSC[C@H](NC(=O)[C@H](Cc4ccc(O)cc4)NC(=O)[C@H](CCCNC(=N)N)NC(=O)[C@H](CCCNC(C)C)NC2=O)C(=O)N[C@@H](Cc2ccc(O)cc2)C(=O)N[C@@H](CCC(N)=O)C(=O)N[C@@H](CCCCNC(C)C)C(=O)N2CCC[C@@H]2C(=O)N2CCC[C@H]2C(=O)N[C@@H](Cc2ccc(O)cc2)C(=O)N[C@@H](Cc2c[nH]cn2)C(=O)N[C@@H](C)C(=O)N3)cc1 [Ex. 4, cyclo(-Tyr^1-His^2-Ala^3-Cys^4-Ser^5-Ala^6-^DTyr(Me)^7-Orn(iPr)^8-Arg^9-Tyr^10-Cys^11-Tyr^12-Gln^13-Lys(iPr)^14-^DPro^15-Pro^16-), disulfide bond between Cys^4 and Cys^11] (cyclo(YHACSA[dY](Me)[Orn(iPr)]RYCYQ[Lys(iPr)][dP]P); disulfide 4-11) |  |  | 1.57 | 1345 | 12.4 | 1615 | 0.6 | 0.607 | 24 | 60 | 
